According to patent US20110245280A1, “FRUGICIDAL MIXTURES BASED ON TRIAZOLES” (BASF AKTIENGESELLSCHAFT, priority 2002, published 2011):

System: mildew of wheat (Erysiphe [syn. Blumeria] graminis form a specialis tritici)
Experiment: Activity against mildew of wheat, protective spray on potted wheat seedlings (cultivar Kanzler), greenhouse
Assay type: in vivo
Conditions: wheat leaves, 7 days after inoculation
Description: The active compounds, separately or together, were formulated as a 10% emulsion in a mixture of 63% by weight of cyclohexanone and 27% by weight of emulsifier, and diluted with water to the desired concentration.
Evaluation was carried out by determining the infected leaf areas in percent. These percentages were converted into efficacies. The efficacy (W) was calculated as follows using Abbot's formula:
[formula] • α corresponds to the fungal infection of the treated plants in % and • β corresponds to the fungal infection of the untreated (control) plants in %
An efficacy of 0 means that the infection level of the treated plants corresponds to that of the untreated control plants; an efficacy of 100 means that the treated plants were not infected.
The expected efficacies of the mixtures of the active compounds were determined using Colby's formula [R. S. Colby, Weeds 15, 20-22 (1967)] and compared with the observed efficacies.
Colby's formula: E=x+y−x·y/100 • E expected efficacy, expressed in % of the untreated control, when using the mixture of the active compounds A and B at the concentrations a and b • x efficacy, expressed in % of the untreated control, when using active compound A at a concentration of a • y efficacy, expressed in % of the untreated control, when using active compound B at a concentration of b.
Leaves of wheat seedlings of the cultivar “Kanzler” grown in pots were sprayed to run-off point with an aqueous suspension having the concentration of active compounds stated below. The suspension or emulsion was prepared from a stock solution made using 10% of active compound in a mixture comprising 70% of cyclohexanone, 20% of wetting agent and 10% of emulsifier. 24 hours after the spraycoating had dried on, the leaves dusted with spores of mildew of wheat (Erysiphe [syn. Blumeria] graminis form a specialis tritici). The test plants were then placed in a greenhouse at 20-24° C. and 60-90% relative atmospheric humidity.
After 7 days, the extent of the development of the mildew was determined visually in % infection of the entire leaf area.
The visually determined values for the percentage of diseased leaf area were converted into efficacies in % of the untreated control. An efficacy of 0 means the same disease level as in the untreated control, an efficacy of 100 means a disease level of 0%. The expected efficacies for the active compound combinations were determined using Colby's formula mentioned above and compared with the observed efficacies.

[1] = 0.25 ppm active compound in the spray liquor
[2] = 0.06 ppm active compound in the spray liquor
[3] = 1 ppm active compound in the spray liquor
[4] = 4 ppm active compound in the spray liquor

SMILES | Efficacy in % of the untreated control [1] [%] | Efficacy in % of the untreated control [2] [%] | Efficacy in % of the untreated control [3] [%] | Efficacy in % of the untreated control (0.015 ppm active compound in the spray liquor) [%] | Efficacy in % of the untreated control [4] [%]
CC1(C)CCC(Cc2ccc(Cl)cc2)C1(O)Cn1cncn1 (stereo not drawn) [Compound III, metconazole] | 11 |  |  |  | 
Fc1ccc(C2(Cn3cncn3)OC2c2ccccc2Cl)cc1 (stereo not drawn) [Compound II, epoxiconazole] | 33 | 11 | 44 |  | 
OC(Cc1ccccc1Cl)(Cn1nc[nH]c1=S)C1(Cl)CC1 (stereo not drawn) [Compound I, 2-[2-(1-chlorocyclopropyl)-3-(2-chlorophenyl)-2-hydroxypropyl]-2,4-dihydro-[1,2,4]-triazole-3-thione] | 0 | 0 | 0 | 0 | 56
CCCCC(C#N)(Cn1cncn1)c1ccc(Cl)cc1 (stereo not drawn) [Compound XIII, myclobutanil] |  | 0 | 11 |  | 56
